Results taken from PubChem BioAssay (NCI).
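Cells were grown in 96-well plates and exposed to each compound for 48 hours at five concentrations; endpoints were interpolated linearly between bracketing concentrations, or set to the highest concentration if not reached. TGI is the concentration that stops growth completely.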

Key:
Experiment in all cases: NCI-60 cell line screen, 48 h
MOLT-4 leukemia = test system: MOLT-4 leukemia
SW-620 colon = test system: SW-620 colon
RXF 393 renal = test system: RXF 393 renal
KM12 colon = test system: KM12 colon
HT29 colon = test system: HT29 colon
HCT-116 colon = test system: HCT-116 colon
SK-OV-3 ovarian = test system: SK-OV-3 ovarian
U251 CNS = test system: U251 CNS
IGROV1 ovarian = test system: IGROV1 ovarian
NCI/ADR-RES ovarian = test system: NCI/ADR-RES ovarian

| SMILES | TGI (MOLT-4 leukemia) [µM] | TGI (SW-620 colon) [µM] | TGI (RXF 393 renal) [µM] | TGI (KM12 colon) [µM] | TGI (HT29 colon) [µM] | TGI (HCT-116 colon) [µM] | TGI (SK-OV-3 ovarian) [µM] | TGI (U251 CNS) [µM] | TGI (IGROV1 ovarian) [µM] | TGI (NCI/ADR-RES ovarian) [µM] |
| --- | --- | --- | --- | --- | --- | --- | --- | --- | --- | --- |
| CCCCCCCC(=O)N1C2CC3CCC2(CS1(=O)=O)C3(C)C (centres undefined) | 35.1 | 61.6 | 31.8 | 74.8 | > 10 | > 100 | > 100 | 69.9 | > 100 | – |
| Cc1[nH]n(C(=O)Cc2ccccc2)c(=O)c1/C=C1\C(=O)C=Cc2ccccc21 | > 100 | > 100 | – | > 100 | > 100 | > 100 | – | – | – | – |
| O=c1cc(O)c1=O | > 100 | > 100 | – | > 100 | > 100 | > 100 | > 100 | > 100 | > 100 | – |
| CC1=C(C(N)=O)C(c2ccncc2)C(C#N)C(=O)N1 (centres undefined) | > 100 | > 100 | > 100 | > 100 | – | > 100 | > 100 | > 100 | > 100 | – |
| CCCCc1c2c([n+]([O-])c3c1CCCC3)CCCC2 | > 100 | > 100 | – | > 100 | > 100 | > 100 | > 100 | > 100 | > 100 | – |
| N#CC(NNC(=O)c1ccccc1O)c1ccccc1O (centres undefined) | > 100 | > 100 | > 100 | > 100 | > 100 | > 100 | > 100 | > 100 | > 100 | – |
| C/C(=N\NC(N)=O)C(CN1CCOCC1)C(c1ccccc1)c1c(O)c2ccccc2oc1=O (centres undefined) | > 100 | > 100 | – | > 100 | > 100 | > 100 | > 100 | > 100 | > 100 | > 100 |
| Cc1cccc2c(=O)c3cccc(CC(=O)O)c3oc12 | > 100 | > 100 | – | > 100 | > 100 | > 100 | > 100 | > 100 | > 100 | > 100 |
| CSc1ccc(/C=C2\N=C(c3ccccc3)N(NC(=O)c3c(Cl)c(Cl)c(Cl)c(Cl)c3-c3nc4ccccc4[nH]3)C2=O)cc1 | 77.3 | > 100 | – | 65.6 | > 100 | 83.3 | > 100 | – | > 100 | > 100 |
| COC(=O)C(Cc1ccc2c(c1)OCO2)(NC(=O)c1ccccc1)P(=O)(OC)OC (centres undefined) | > 100 | > 100 | > 100 | > 100 | > 100 | > 100 | > 100 | > 100 | > 100 | – |
| COc1ccc(N(c2ccc(C#N)cc2)c2ccc(C#N)cc2)cc1 | > 100 | > 100 | – | > 100 | > 100 | > 100 | > 100 | > 100 | > 100 | – |
| COc1cc(/C=C(\C#N)C(=O)c2ccccc2)cc(OC)c1OC | > 100 | > 100 | 96.8 | > 100 | > 100 | > 100 | > 100 | > 100 | – | – |
| CCCCCCCCCCCCOC(=N)N1CCOCC1 | 6.89 | 16.6 | 25.9 | 19.3 | 4.11 | 22.6 | 34.1 | 21.9 | 27.7 | – |
| CCn1c(O)c(C(=O)Nc2cccs2)c(=O)n(CC)c1=S | 59.8 | 56.2 | – | 32.6 | 31.9 | 37.3 | 77.9 | 25.9 | 60.9 | – |
| Nc1cc2c(C3OC(CO)C(O)C3O)[nH]nc2c(=S)[nH]1 (centres undefined) | > 100 | > 100 | > 100 | > 100 | > 100 | > 100 | > 100 | > 100 | > 100 | – |
| O=C(O)OC12CCCCCC1C(=O)C1CCCCC12 (centres undefined) | > 100 | > 100 | > 100 | > 100 | > 100 | > 100 | > 100 | > 100 | – | – |
| COc1ccc(Cc2c3cc(OC)c(OC)cc3cc[n+]2C)cc1 | > 100 | > 100 | > 42 | > 23 | > 27.1 | > 24.8 | > 47.3 | > 73.1 | > 69.4 | – |
| CSC(SC)=C1Sc2cccc(Cl)c2S1 | > 100 | > 100 | 88.1 | > 100 | > 100 | > 100 | > 100 | > 100 | > 100 | – |
| O=C(c1ccccc1)N1N=C(C(F)(F)F)CC1(O)C(F)(F)F (centres undefined) | > 100 | > 100 | – | > 100 | > 100 | > 100 | – | > 100 | – | > 100 |
| CC1CC(=O)C(CC(=O)O)[C@H]1C(C(=O)C(=O)Nc1cc(Cl)ccc1Cl)[N+](=O)[O-] (some centres undefined) | – | > 100 | > 100 | > 100 | > 100 | – | > 100 | > 100 | > 100 | – |
